Calls of active or inactive are those of the source.
Experiments:
Type in all cases: functional
Bcl-2-related protein A1 = molecular target: T1, Bcl-2-related protein A1 (Mus musculus, UniProt Q07440);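 note: confirmatory dose–response counterscreen on Bfl-1, used to check hits from a UBC13 polyubiquitin inhibitor campaign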
T1 sequence (Q07440 whole entry): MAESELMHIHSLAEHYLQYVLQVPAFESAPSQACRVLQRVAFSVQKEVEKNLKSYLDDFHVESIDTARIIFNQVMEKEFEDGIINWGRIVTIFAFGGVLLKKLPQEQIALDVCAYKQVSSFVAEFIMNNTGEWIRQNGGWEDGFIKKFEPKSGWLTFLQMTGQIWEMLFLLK

[1] = molecular target: T2, Replicative DNA helicase DnaB (Mycobacterium tuberculosis, UniProt P9WMR3); assay: DnaB intein splicing inhibitors, dose response, biochemical, cell-free fluorescence (AID 449749)
T2 sequence (P9WMR3 whole entry): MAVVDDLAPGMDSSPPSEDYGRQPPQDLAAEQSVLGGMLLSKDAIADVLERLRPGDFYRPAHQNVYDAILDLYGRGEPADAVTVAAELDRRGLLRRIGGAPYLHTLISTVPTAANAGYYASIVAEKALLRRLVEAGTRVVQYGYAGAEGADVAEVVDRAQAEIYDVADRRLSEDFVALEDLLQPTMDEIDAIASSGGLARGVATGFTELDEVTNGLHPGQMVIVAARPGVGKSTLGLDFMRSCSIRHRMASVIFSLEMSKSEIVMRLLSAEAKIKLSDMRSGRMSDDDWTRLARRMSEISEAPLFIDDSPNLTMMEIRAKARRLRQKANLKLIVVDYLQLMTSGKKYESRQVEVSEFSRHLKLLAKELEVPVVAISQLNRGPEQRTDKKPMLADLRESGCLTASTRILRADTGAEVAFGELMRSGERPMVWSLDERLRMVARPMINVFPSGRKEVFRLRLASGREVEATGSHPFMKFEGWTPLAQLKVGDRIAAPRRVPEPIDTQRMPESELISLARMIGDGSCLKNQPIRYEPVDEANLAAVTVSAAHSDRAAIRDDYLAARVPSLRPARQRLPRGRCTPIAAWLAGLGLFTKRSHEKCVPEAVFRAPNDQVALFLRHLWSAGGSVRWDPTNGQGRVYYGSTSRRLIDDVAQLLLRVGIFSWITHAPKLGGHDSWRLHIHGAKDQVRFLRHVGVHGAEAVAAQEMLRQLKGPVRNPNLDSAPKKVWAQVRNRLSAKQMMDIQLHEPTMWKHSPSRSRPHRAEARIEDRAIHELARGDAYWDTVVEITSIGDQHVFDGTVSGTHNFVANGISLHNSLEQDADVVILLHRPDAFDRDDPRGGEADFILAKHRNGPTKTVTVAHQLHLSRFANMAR

Protein RecA = molecular target: T3, Protein RecA (Mycobacterium tuberculosis, UniProt P9WHJ3); assay: Fluorescence Cell-Free Homogeneous Dose Retest to Identify Inhibitors of RecA-Intein Splicing Activity. [Related pubchem assays (depositor defined):AID2097, AID2223, AID489010, AID492950]
T3 sequence (P9WHJ3 whole entry): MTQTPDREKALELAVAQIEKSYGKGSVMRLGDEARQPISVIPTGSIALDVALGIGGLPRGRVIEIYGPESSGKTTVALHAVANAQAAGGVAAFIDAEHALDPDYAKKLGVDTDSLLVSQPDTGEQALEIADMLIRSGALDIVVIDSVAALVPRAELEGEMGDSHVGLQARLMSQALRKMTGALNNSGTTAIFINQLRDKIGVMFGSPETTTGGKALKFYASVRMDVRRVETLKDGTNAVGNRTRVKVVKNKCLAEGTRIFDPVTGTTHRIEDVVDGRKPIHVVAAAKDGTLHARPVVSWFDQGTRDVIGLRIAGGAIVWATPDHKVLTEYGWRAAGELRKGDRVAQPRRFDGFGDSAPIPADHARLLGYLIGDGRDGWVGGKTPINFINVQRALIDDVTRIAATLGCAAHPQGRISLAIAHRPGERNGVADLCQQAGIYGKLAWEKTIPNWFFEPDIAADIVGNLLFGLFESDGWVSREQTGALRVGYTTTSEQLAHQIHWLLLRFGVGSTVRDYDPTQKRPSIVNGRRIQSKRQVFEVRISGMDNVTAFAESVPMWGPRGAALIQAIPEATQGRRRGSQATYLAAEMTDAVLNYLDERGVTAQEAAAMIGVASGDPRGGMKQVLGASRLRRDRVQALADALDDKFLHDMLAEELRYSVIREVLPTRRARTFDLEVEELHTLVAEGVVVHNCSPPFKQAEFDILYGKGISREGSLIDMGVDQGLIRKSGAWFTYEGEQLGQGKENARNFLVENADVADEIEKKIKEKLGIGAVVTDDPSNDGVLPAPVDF

SMILES: COc1cc(/C=C/c2cc[n+](C)cc2)ccc1OCC(=O)Nc1ccc(Cl)c(Cl)c1
- IC50 (Bcl-2-related protein A1): > 20 µM (inactive)
- AC50 [1]: > 380 µM (inactive)
- EC50 (Protein RecA): 17.2 µM (active)

SMILES: CCCCCCCCCC[N+](C)(C)CC/C=C1/c2ccccc2Sc2ccc(Cl)cc21
- IC50 (Bcl-2-related protein A1): 8.08 µM (active)
- AC50 [1]: > 380 µM (inconclusive)
- EC50 (Protein RecA): 5.8 µM (active)

SMILES: O=C(NCCc1ccccc1)C(c1cccs1)N(C(=O)CCl)c1ccc(Cl)cc1 (stereo not drawn)
- AC50 [1]: 1.49 µM (active)
- EC50 (Protein RecA): 0.233 µM (active)
